Measured values from US6379563B1, “Alkylamines as biofilm deactivation agents” (Albemarle Corporation, priority 2000, dated 2002).
Where two headings read alike, the source gives them in different places.

How the values were obtained:
[1] = from Bodor, Gabanyi, Wang, JACS 111, 3783 (1989); cited from earlier work
[2] = system: Pseudomonas aeruginosa (ATCC 15442) biofilms; assay: MBEC test, 24-hour biofilm, one hour biocide challenge;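 for all read-outs here: Peg-grown biofilms exposed to biocide, then regrowth in broth 18 h at 35 °C, turbidity by absorbance at 650 nm, above 0.100 counted as growth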; format: cell-based; conditions: for minimum biofilm eradication concentration (MBEC) / MBC: Pseudomonas aeruginosa, ATCC15442, 1 h; for minimum biofilm eradication concentration (MBEC) / MBEC, avg. / MBEC, ppm (first of duplicate runs) / MBEC, ppm (second of duplicate runs) / biofilm deactivation at 200 ppm (regrowth optical density measurements): 24-hour biofilm, 1 hour contact
Source text: The MBEC technique consists of growing identical 24-hour biofilms on 96 pegs arrayed in 12 rows and 8 columns. The biofilms then are challenged with decreasing concentrations of selected antibiotics and/or biocides. After a certain challenge time (generally one hour), the biofilms are placed in 96 individual wells of growth media and ultra-sonicated to deactivate any surviving organisms. After culturing overnight, the wells are checked for turbidity. Clear, transparent wells indicate complete deactivation of the biofilm. Conversely, turbidity (“growth”) indicates lack of complete deactivation of the biofilm.
The minimum biofilm deactivation concentration (MBEC) is defined as the minimum concentration of an agent that completely deactivates biofilm bacteria. […] Unless otherwise indicated, the biofilms used in the examples below consisted of a pure culture of Pseudomonas aeruginosa (ATCC 15442).
Pseudomonas aeruginosa (ATCC 15442) biofilms were prepared on the 96 pegs of the MBEC plate by aerobic incubation in simple salts medium with 0.1% glucose (24 hours, 35° C.). The pegs were rinsed in synthetic water (SW) and then challenged by the biocide for one hour. Following the biocide challenge, the pegs were rinsed twice with SW and then sonicated into Mueller-Hinton broth (225 μL per well). The broth was then incubated for 18 hours at 35° C.

[3] = system: 7-day biofilm formed using P. aeruginosa; assay: MBEC test, 7-day biofilm, one hour biocide challenge; format: cell-based, Pseudomonas aeruginosa; conditions: 1 hour contact; for MBEC, avg., Example 4 / MBEC, ppm (first of duplicate runs), Example 4 / MBEC, ppm (second of duplicate runs), Example 4: Example 4, ppm oxidant (as Cl2) or ppm active
Source text: The MBEC technique consists of growing identical 24-hour biofilms on 96 pegs arrayed in 12 rows and 8 columns. The biofilms then are challenged with decreasing concentrations of selected antibiotics and/or biocides. After a certain challenge time (generally one hour), the biofilms are placed in 96 individual wells of growth media and ultra-sonicated to […] any surviving organisms. After culturing overnight, the wells are checked for turbidity. Clear, transparent wells indicate complete deactivation of the biofilm. Conversely, turbidity (“growth”) indicates lack of complete deactivation of the biofilm.
After the 18 hour incubation period, the recovery wells were checked for turbidity. Clear, transparent wells indicated complete deactivation of the biofilm. Conversely, turbidity indicated the lack of complete deactivation of the biofilm. The minimum biofilm deactivation concentration (MBEC) is defined as the minimum concentration of agent which results in complete deactivation of the biofilm. MBEC endpoints were unambiguously determined by absorbance at 650 nm. using UV visible spectroscopy. An absorbance >0.100 was considered a positive indication of growth.
Pseudomonas aeruginosa (ATCC 15442) biofilms were prepared as described in Example I. The 7-day biofilms were prepared by a modification of the above procedure. Each day, spent media was replaced with fresh media and inocula.
Older biofilms offer increased resistance to biocides. Studies were extended to 7-day biofilms formed using P. aeruginosa. The procedure used to form the 7-day biofilm was the same as in Example 1, except that each day, spent media was replaced with fresh media and inocula. This biofilm was then challenged with oxidizing and non-oxidizing biocides.
Another 7-day biofilm was prepared from P. aeruginosa, as in EXAMPLE 3. This biofilm was then challenged with several common oxidizing and non-oxidizing biocides.

[4] = average of duplicate runs, blends: total amount of components (1:1 ratio), read-out: MBEC, avg.
[5] = blends: total amount of components (1:1 ratio), read-out: MBEC, ppm (first of duplicate runs)
[6] = blends: total amount of components (1:1 ratio), read-out: MBEC, ppm (second of duplicate runs)
[7] = blends: total biocide, read-out: MBEC
[8] = average of duplicate runs, blends: total amount of components (1:1 ratio)
[9] = blends: total amount of components (1:1 ratio)
[10] = Example 3, ppm oxidant (as Cl2) or ppm active
[11] = read-out: MBEC, avg., 24-hour biofilm, 1 hour contact, average of duplicate runs, blends: total amount of components (1:1 ratio)
[12] = read-out: MBEC, ppm (second of duplicate runs), 24-hour biofilm, 1 hour contact, blends: total amount of components (1:1 ratio)
[13] = read-out: MBEC, ppm (first of duplicate runs), 24-hour biofilm, 1 hour contact, blends: total amount of components (1:1 ratio)

Structure (SMILES)	minimum biofilm eradication concentration (MBEC) [2, 4] [µg/mL]	minimum biofilm eradication concentration (MBEC) [2, 5] [µg/mL]	minimum biofilm eradication concentration (MBEC) [2, 6] [µg/mL]	minimum biofilm eradication concentration (MBEC) [2, 7] [µg/mL]	also measured
CCCCN [1-Butylamine]					logKow experimental [1]: 0.87
CCCCCCCCCCN [1-Decylamine]	200	200	200	200	
CCCCCCCCCCCCN [1-Dodecylamine]	25	25	25	~38	MBEC on 7-day biofilm [3]: 75 ppm; MBEC, avg., Example 4 [3]: 75 ppm; MBEC, ppm (first of duplicate runs), Example 4 [3]: 100 ppm; MBEC, ppm (second of duplicate runs), Example 4 [3]: 50 ppm
CCCCCCCCCCCCCCCCN [1-Hexadecylamine]	200	200	200	200	
CCCCCCN [1-Hexylamine]	1600	1600	1600		
CCCCCCCCN [1-Octylamine]	400	400	400	400	
CCCCCCCCCCCCCCN [1-Tetradecylamine]	25	25	25	25	
CCCCN(C)CCCC [CH3(C4H9)2N]					MBEC, avg. [2, 8]: >800 ppm; MBEC, ppm (first of duplicate runs) [2, 9]: >800, >800 ppm; MBEC, ppm (second of duplicate runs) [2, 9]: >800, >800 ppm
CCCCCCN(C)CCCCCC [CH3(C6H13)2N]					MBEC, avg. [2, 8]: >800 ppm; MBEC, ppm (first of duplicate runs) [2, 9]: >800, >800 ppm; MBEC, ppm (second of duplicate runs) [2, 9]: >800, >800 ppm
CCCCCCCCN(C)CCCCCCCC [CH3(C8H17)2N, Dioctylmethylamine]	800	800	800	800	
O=c1n(Cl)c(=O)n(Cl)c(=O)n1Cl [Cl2 (from Trichlor), trichloroisocyanuric acid]					MBEC on 7-day biofilm [3]: 20 ppm; MBEC, ppm (first of duplicate runs), Example 3 [3, 10]: 5 ppm; MBEC, ppm (second of duplicate runs), Example 3 [3, 10]: > 10 ppm; MBEC, avg., Example 4 [3]: 20 ppm; MBEC, ppm (first of duplicate runs), Example 4 [3]: 20, 20 ppm; MBEC, ppm (second of duplicate runs), Example 4 [3]: 20, 20 ppm
CCCCCCCCCCN(C)CCCCCCCCCC [DAMA 1010 Amine, didecylmethylamine]	400	400	400	400	
CCCCCCCCCC[N+](C)(C)CCCCCCCCCC.[Cl-] [DAQ 1010, Didecyldimethyl ammonium chloride]					MBC ([2]; read-out: MBEC, 24-hour biofilm, 1 hour contact, blends: total biocide): ~38 µg/mL; MBC [2, 11]: 50 µg/mL; MBC [2, 12]: 25 µg/mL; MBEC on 7-day biofilm [3]: 75 ppm; MBEC, avg., Example 4 [3]: 75 ppm; MBEC, ppm (first of duplicate runs), Example 4 [3]: 100 ppm; MBEC, ppm (second of duplicate runs), Example 4 [3]: 50 ppm
CCCCNCCCC [N,N-Dibutylamine]	> 1600	> 1600	> 1600		logKow experimental [1]: 2.76
CCCCN(C)C [N,N-Dimethylbutylamine]					logKow experimental [1]: 1.70
CCCCCCCCCCN(C)C [N,N-Dimethyldecylamine]	> 400	> 400	> 400		
CCCCCCCCCCCCN(C)C [N,N-Dimethyldodecylamine]					MBC [2, 11]: > 200 µg/mL; MBC [2, 13]: > 200 µg/mL; MBC [2, 12]: > 200 µg/mL
CCCCCCCCCCCCCCCCN(C)C [N,N-Dimethylhexadecylamine]	> 200	> 200	> 200	400 to 800	biofilm deactivation at 200 ppm (regrowth optical density measurements) [2]: evidence of biofilm deactivation
CCCCCCCCN(C)C [N,N-Dimethyloctylamine]	> 800	> 800	> 800		
CCCCCCCCCCCCCCN(C)C [N,N-Dimethyltetradecylamine]	> 200	> 200	> 200	400 to 800	biofilm deactivation at 200 ppm (regrowth optical density measurements) [2]: evidence of biofilm deactivation
CCCCCCCCNCCCCCCCC [N,N-Dioctylamine]	1600	1600	1600	1600	
OC[P+](CO)(CO)CO.[Cl-] [THPC, tetrakis(hydroxymethyl)phosphonium chloride, reference compound]					MBC [2, 11]: 100 µg/mL; MBC [2, 13]: 100 µg/mL; MBC [2, 12]: 100 µg/mL
O=CCCCC=O [glutaraldehyde, reference compound]	50	50	50	50 to 100	MBEC on 7-day biofilm [3]: about 200 ppm; MBEC, avg., Example 3 [3, 10]: ˜200 ppm; MBEC, ppm (first of duplicate runs), Example 3 [3, 10]: 100 ppm; MBEC, ppm (second of duplicate runs), Example 3 [3, 10]: > 200 ppm
